In the kinase profiling compilation of Christmann-Franck et al. (2016):

How the values were obtained:
Experiment in all cases: radiometric filter-binding kinase assay
[1] = target: EPHA4 (human) (UniProt P54764)
[2] = target: IRAK4 (human) (UniProt Q9NWZ3)
[3] = target: NEK6 (human) (UniProt Q9HC98)
[4] = target: EEF2K (human) (UniProt O00418)
[5] = target: RPS6KA5 KD1 KD2 (human) (UniProt O75582)
[6] = target: PLK1 (human) (UniProt P53350)
[7] = target: MAP3K7 TAB1 (human) (UniProt Q15750+O43318)
[8] = target: DYRK3 (human) (UniProt O43781)
[9] = target: BTK (human) (UniProt Q06187)
[10] = target: IKBKE (human) (UniProt Q14164)
[11] = target: MAPK15 (human) (UniProt Q8TD08)
[12] = target: MAPK13 (human) (UniProt O15264)
[13] = target: MKNK2 (human) (UniProt Q9HBH9)
[14] = target: MAP3K1 (human) (UniProt Q13233)
[15] = test system: LCK (mouse); conditions: accession and sequence are those of the human protein
[16] = target: GSK3B (human) (UniProt P49841)
[17] = target: MAPKAPK5 (human) (UniProt Q8IW41)
[18] = test system: ROCK2 (rat); conditions: accession and sequence are those of the human protein
[19] = target: INSRR (human) (UniProt P14616)
[20] = target: MAPKAPK3 (human) (UniProt Q16644)
[21] = target: MARK4 (human) (UniProt Q96L34)
[22] = target: ERBB4 (human) (UniProt Q15303)
[23] = target: CDK2 CCNA2 (human) (UniProt P20248+P24941)
[24] = target: NUAK1 (human) (UniProt O60285)
[25] = target: RPS6KA3 KD1 KD2 (human) (UniProt P51812)
[26] = target: EPHB4 (human) (UniProt P54760)
[27] = target: EPHB2 (human) (UniProt P29323)
[28] = target: PIM1 (human) (UniProt P11309)
[29] = target: NEK2 (human) (UniProt P51955)
[30] = target: PKN2 (human) (UniProt Q16513)
[31] = target: YES1 (human) (UniProt P07947)
[32] = target: CHEK2 (human) (UniProt O96017)
[33] = target: MAPK10 (human) (UniProt P53779)

Chain of NUAK1 (human) (O60285 whole entry, looked up): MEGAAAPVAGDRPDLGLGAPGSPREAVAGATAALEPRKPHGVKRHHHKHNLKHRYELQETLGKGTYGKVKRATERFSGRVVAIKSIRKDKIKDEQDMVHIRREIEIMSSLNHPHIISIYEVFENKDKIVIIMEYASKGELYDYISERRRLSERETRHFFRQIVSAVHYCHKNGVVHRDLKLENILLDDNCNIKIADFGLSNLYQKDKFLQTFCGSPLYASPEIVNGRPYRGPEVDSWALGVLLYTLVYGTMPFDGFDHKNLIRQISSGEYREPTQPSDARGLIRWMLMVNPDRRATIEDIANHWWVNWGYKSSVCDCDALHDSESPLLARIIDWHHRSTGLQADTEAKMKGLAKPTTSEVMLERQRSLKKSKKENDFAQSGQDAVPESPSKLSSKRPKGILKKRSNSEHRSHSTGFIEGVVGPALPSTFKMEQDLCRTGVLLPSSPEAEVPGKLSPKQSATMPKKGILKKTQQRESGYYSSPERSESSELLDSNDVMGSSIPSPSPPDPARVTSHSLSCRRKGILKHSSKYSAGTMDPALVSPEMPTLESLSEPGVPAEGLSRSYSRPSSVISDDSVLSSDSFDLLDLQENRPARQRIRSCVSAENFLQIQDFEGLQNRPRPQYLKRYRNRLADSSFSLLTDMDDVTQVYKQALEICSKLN
Chain of MKNK2 (human) (Q9HBH9 whole entry, looked up): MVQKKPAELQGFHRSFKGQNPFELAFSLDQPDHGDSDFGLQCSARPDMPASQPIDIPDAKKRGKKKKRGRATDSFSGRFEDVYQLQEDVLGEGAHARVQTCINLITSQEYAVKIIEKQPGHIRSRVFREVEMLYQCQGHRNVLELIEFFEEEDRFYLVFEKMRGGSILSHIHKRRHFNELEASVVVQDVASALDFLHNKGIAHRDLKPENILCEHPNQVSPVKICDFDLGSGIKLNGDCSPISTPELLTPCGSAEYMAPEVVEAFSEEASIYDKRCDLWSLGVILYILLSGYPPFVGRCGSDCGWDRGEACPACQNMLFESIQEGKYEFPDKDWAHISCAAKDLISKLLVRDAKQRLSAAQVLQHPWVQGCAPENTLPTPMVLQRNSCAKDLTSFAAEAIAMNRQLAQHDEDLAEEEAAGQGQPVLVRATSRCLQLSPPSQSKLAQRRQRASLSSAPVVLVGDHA
Chain of CHEK2 (human) (O96017 whole entry, looked up): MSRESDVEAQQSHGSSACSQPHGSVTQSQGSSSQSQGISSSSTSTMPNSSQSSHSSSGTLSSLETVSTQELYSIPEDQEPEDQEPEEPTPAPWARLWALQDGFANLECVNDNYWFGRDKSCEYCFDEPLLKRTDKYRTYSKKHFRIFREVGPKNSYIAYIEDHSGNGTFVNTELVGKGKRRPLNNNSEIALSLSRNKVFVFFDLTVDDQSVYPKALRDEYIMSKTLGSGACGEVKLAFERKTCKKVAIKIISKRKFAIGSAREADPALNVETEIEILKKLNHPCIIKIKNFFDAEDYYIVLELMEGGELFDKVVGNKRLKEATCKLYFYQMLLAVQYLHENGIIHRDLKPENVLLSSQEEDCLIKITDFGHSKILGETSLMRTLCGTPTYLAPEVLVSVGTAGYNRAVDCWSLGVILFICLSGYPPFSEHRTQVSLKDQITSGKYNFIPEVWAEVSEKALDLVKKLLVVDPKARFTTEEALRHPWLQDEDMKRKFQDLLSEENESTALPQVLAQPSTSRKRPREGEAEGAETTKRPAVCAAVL
Chain of PLK1 (human) (P53350 whole entry, looked up): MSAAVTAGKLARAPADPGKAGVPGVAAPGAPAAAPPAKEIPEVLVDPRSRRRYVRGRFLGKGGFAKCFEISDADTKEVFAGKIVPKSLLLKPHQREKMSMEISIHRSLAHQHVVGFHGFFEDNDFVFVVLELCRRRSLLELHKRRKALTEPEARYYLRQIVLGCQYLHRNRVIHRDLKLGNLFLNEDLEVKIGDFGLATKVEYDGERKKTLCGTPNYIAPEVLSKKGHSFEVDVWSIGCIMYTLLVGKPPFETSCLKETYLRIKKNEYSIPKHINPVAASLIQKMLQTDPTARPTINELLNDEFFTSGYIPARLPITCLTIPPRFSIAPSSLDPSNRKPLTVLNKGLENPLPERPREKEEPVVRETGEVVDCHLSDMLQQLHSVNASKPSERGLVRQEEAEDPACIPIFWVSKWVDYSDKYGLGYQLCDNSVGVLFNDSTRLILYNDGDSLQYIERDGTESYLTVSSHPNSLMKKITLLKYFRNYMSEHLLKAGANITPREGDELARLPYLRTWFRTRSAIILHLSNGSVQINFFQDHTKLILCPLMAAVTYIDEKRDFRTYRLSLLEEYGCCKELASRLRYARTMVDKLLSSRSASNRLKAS
Chain of MAPKAPK3 (human) (Q16644 whole entry, looked up): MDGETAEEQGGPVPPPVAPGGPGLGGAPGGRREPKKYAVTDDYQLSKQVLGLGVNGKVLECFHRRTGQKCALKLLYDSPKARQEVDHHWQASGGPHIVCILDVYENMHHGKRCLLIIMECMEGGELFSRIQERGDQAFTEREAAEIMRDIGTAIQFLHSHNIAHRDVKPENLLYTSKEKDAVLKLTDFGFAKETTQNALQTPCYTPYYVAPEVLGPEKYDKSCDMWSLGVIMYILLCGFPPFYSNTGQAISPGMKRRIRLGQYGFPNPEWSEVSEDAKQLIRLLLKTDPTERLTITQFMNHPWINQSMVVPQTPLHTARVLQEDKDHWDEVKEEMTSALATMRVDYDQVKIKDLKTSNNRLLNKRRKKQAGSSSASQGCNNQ
Chain of EPHA4 (human) (P54764 whole entry, looked up): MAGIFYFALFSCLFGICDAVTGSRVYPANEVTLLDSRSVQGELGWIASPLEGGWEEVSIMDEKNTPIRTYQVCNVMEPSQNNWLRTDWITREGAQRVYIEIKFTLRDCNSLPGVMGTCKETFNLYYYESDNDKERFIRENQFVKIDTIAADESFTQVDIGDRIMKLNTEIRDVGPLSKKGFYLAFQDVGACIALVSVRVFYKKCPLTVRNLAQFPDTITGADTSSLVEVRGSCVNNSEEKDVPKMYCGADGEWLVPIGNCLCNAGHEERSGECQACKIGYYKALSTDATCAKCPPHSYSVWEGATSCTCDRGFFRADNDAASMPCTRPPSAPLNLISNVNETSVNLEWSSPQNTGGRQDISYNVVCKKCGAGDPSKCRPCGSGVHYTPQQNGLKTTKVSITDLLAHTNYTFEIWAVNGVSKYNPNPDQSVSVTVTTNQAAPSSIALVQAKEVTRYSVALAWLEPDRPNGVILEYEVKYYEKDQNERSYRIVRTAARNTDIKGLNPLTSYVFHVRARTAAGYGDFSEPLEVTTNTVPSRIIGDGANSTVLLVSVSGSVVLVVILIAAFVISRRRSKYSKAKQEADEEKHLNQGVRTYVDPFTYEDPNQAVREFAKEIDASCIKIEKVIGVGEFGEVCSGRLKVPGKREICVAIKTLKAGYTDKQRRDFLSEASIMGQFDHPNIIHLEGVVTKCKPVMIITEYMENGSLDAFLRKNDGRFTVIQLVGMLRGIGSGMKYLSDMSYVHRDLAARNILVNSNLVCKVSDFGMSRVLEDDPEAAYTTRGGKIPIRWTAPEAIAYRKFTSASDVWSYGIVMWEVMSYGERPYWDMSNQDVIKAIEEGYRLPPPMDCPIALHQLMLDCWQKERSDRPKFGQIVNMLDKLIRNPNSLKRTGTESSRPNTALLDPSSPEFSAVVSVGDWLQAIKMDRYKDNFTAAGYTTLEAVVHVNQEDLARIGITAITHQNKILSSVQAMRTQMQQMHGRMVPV
Chain of MAP3K7 TAB1 (human) (O43318 whole entry, looked up): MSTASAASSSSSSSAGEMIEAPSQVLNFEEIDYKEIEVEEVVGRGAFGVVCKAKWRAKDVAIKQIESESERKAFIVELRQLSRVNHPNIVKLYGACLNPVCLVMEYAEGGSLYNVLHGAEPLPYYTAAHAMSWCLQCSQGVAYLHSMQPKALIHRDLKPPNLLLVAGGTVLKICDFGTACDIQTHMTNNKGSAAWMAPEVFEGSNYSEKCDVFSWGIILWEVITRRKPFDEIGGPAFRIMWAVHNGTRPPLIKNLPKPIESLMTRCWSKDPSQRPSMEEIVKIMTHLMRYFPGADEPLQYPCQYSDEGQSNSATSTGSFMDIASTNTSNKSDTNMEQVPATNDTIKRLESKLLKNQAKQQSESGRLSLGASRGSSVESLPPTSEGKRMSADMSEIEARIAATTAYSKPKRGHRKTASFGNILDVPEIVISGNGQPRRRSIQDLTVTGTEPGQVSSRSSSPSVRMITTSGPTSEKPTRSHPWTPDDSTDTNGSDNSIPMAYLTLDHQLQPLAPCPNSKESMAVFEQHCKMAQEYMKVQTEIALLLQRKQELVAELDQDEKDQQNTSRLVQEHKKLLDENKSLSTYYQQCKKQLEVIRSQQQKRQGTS
Chain of MAP3K7 TAB1 (human) (Q15750 whole entry, looked up): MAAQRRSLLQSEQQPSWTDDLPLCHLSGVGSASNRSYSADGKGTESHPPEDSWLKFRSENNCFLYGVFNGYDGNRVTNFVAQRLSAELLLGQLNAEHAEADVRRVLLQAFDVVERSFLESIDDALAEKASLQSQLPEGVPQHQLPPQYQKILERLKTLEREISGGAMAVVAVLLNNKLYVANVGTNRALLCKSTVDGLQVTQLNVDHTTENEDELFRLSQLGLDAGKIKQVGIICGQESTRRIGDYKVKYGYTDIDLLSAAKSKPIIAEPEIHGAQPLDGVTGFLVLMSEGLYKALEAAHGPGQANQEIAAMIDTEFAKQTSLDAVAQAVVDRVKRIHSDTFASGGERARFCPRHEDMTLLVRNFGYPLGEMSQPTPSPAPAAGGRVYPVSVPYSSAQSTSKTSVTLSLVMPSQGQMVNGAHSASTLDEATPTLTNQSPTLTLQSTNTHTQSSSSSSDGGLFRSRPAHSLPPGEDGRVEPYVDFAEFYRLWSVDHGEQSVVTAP

What does the source list for COc1cc(C(=O)N2CCC(N3CCN(C)CC3)CC2)ccc1Nc1ncc2c(n1)N(C)c1ccccc1C(=O)N2C?
residual activity ([1]; compound 1.0 µM): 88%; residual activity ([1]; compound 10.0 µM): 94%; residual activity ([2]; compound 1.0 µM): 93%; residual activity ([2]; compound 10.0 µM): 94%; residual activity ([3]; compound 1.0 µM): 90%; residual activity ([3]; compound 10.0 µM): 110%; residual activity ([4]; compound 1.0 µM): 75%; residual activity ([4]; compound 10.0 µM): 82%; residual activity ([5]; compound 1.0 µM): 79%; residual activity ([5]; compound 10.0 µM): 84%; IC50 [6]: > 100 µM; residual activity ([6]; compound 1.0 µM): 73%; residual activity ([6]; compound 10.0 µM): 35%; residual activity ([7]; compound 1.0 µM): 85%; residual activity ([7]; compound 10.0 µM): 82%; residual activity ([8]; compound 1.0 µM): 95%; residual activity ([8]; compound 10.0 µM): 96%; residual activity ([9]; compound 1.0 µM): 95%; residual activity ([9]; compound 10.0 µM): 75%; residual activity ([10]; compound 1.0 µM): 76%; residual activity ([10]; compound 10.0 µM): 88%; residual activity ([11]; compound 1.0 µM): 86%; residual activity ([11]; compound 10.0 µM): 104%; residual activity ([12]; compound 1.0 µM): 102%; residual activity ([12]; compound 10.0 µM): 106%; IC50 [13]: 7.2 µM; residual activity ([13]; compound 1.0 µM): 72%; residual activity ([13]; compound 10.0 µM): 22%; residual activity ([14]; compound 1.0 µM): 87%; residual activity ([14]; compound 10.0 µM): 83%; residual activity ([15]; compound 1.0 µM): 106%; residual activity ([15]; compound 10.0 µM): 99%; residual activity ([16]; compound 1.0 µM): 90%; residual activity ([16]; compound 10.0 µM): 95%; residual activity ([17]; compound 1.0 µM): 102%; residual activity ([17]; compound 10.0 µM): 107%; residual activity ([18]; compound 1.0 µM): 84%; residual activity ([18]; compound 10.0 µM): 84%; residual activity ([19]; compound 1.0 µM): 80%; residual activity ([19]; compound 10.0 µM): 91%; residual activity ([20]; compound 1.0 µM): 85%; residual activity ([20]; compound 10.0 µM): 89%; residual activity ([21]; compound 1.0 µM): 94%; residual activity ([21]; compound 10.0 µM): 87%; residual activity ([22]; compound 1.0 µM): 68%; residual activity ([22]; compound 10.0 µM): 72%; residual activity ([23]; compound 1.0 µM): 84%; residual activity ([23]; compound 10.0 µM): 79%; IC50 [24]: 5 µM; residual activity ([24]; compound 1.0 µM): 50%; residual activity ([24]; compound 10.0 µM): 19%; residual activity ([25]; compound 1.0 µM): 84%; residual activity ([25]; compound 10.0 µM): 59%; residual activity ([26]; compound 1.0 µM): 90%; residual activity ([26]; compound 10.0 µM): 107%; residual activity ([27]; compound 1.0 µM): 96%; residual activity ([27]; compound 10.0 µM): 93%; residual activity ([28]; compound 1.0 µM): 94%; residual activity ([28]; compound 10.0 µM): 87%; residual activity ([29]; compound 1.0 µM): 92%; residual activity ([29]; compound 10.0 µM): 110%; residual activity ([30]; compound 1.0 µM): 74%; residual activity ([30]; compound 10.0 µM): 80%; residual activity ([31]; compound 1.0 µM): 86%; residual activity ([31]; compound 10.0 µM): 82%; IC50 [32]: 2 µM; residual activity ([32]; compound 1.0 µM): 38%; residual activity ([32]; compound 10.0 µM): 13%; residual activity ([33]; compound 1.0 µM): 92%; residual activity ([33]; compound 10.0 µM): 109%
